From patent US9409866B2, “Pyridine-2-amides useful as CB2 agonists” (Hoffmann-La Roche Inc., priority 2012, dated 2016)
Read-outs that look alike come from different tables or passages of the source. Blank lines part the entries; values can stand above or below the compound they belong to.

Legend:
human CB2 receptors = human CB2 receptors (Homo sapiens (Human), UniProt P34972); assay: functional cAMP assay, CHO cells expressing human CB2; type: cell-based
How it was run: (§1)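 CHO cells with human CB1 or CB2 were switched to Krebs Ringer bicarbonate buffer with 1 mM IBMX for 30 min at 30 °C, then given compound for 30 min at 30 °C. cAMP was measured by time-resolved FRET against a cAMP standard curve, and EC50 values were calculated.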

human CB1 receptors = human CB1 receptors (Homo sapiens (Human), UniProt P21554); assay: functional cAMP assay, CHO cells expressing human CB1; type: cell-based
How it was run: as §1

[1] = functional cAMP assay, CHO cells expressing human CB1; read-out: Human CB1 EC50
[2] = Human CB1 EC50 (uM), functional cAMP assay, CHO cells expressing human CB1

Chain of human CB2 receptors (P34972 whole entry): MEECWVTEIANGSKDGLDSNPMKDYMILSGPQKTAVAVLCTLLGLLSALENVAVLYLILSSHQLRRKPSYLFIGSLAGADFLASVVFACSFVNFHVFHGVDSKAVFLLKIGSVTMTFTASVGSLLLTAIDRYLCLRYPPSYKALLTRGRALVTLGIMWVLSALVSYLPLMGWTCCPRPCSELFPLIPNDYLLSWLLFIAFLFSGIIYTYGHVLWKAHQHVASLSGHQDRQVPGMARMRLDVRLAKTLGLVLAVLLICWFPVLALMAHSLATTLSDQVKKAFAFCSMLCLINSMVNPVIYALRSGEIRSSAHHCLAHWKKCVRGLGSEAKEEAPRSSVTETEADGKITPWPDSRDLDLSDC
Chain of human CB1 receptors (P21554 whole entry): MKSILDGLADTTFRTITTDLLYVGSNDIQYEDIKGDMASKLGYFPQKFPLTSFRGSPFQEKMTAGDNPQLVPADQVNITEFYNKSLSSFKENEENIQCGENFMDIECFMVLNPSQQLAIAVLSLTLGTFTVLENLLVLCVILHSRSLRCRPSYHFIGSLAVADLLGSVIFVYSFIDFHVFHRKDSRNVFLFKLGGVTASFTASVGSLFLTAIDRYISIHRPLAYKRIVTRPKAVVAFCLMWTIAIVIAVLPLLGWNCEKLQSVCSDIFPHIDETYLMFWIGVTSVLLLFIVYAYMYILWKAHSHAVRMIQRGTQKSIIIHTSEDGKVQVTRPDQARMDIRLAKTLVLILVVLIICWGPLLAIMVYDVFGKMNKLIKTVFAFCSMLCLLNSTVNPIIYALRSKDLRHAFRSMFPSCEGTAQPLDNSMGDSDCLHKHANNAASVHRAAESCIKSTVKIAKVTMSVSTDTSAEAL

SMILES: Cc1nc(C(C)(CS(C)(=O)=O)NC(=O)c2cc(O[C@@H](C)C(F)(F)F)c(C3(F)CCC3)cn2)no1 (stereo partly drawn) [Example 138, 5-(1-fluorocyclobutyl)-N-[2-(5-methyl-1,2,4-oxadiazol-3-yl)-1-methylsulfonylpropan-2-yl]-4-[(2S)-1,1,1-trifluoropropan-2-yl]oxypyridine-2-carboxamide]
- EC50 (human CB2 receptors; read-out: Human CB2 EC50): 0.0217 µM
- EC50 (human CB1 receptors; [1]): > 10 µM

SMILES: Cc1nc([C@@](C)(CC2CC2)NC(=O)c2cc(OCC(F)(F)F)c(N3CC(F)(F)C3)cn2)no1 (single isomer, unassigned) [Example 91, 5-(3,3-Difluoro-azetidin-1-yl)-4-(2,2,2-trifluoro-ethoxy)-pyridine-2-carboxylic acid [2-cyclopropyl-1-methyl-1-(5-methyl-[1,2,4]oxadiazol-3-yl)-ethyl]-amide]
- EC50 (human CB2 receptors; Human CB2 EC50 (uM)): 0.0303 µM
- EC50 (human CB1 receptors; [2]): > 10 µM

SMILES: CC(CF)Oc1cc(C(=O)NC(C)(CC(N)=O)C2CC2)ncc1C1CC1 (centres unmarked) [Example 294, N-(4-amino-2-cyclopropyl-4-oxobutan-2-yl)-5-cyclopropyl-4-(1-fluoropropan-2-yloxy)picolinamide]
- EC50 (human CB2 receptors; read-out: Human CB2 EC50): 0.0006 µM
- EC50 (human CB1 receptors; [1]): > 10 µM

- EC50 (human CB2 receptors; read-out: Human CB2 EC50): 0.0033 µM
- EC50 (human CB1 receptors; [1]): 0.145 µM
SMILES: O=C(N[C@@H](c1cccnc1)C(F)(F)F)c1cc(Cc2ccc(F)cc2)c(Cl)cn1 [Example 41, 5-Chloro-4-(4-fluoro-benzyl)-pyridine-2-carboxylic acid ((S)-2,2,2-trifluoro-1-pyridin-3-yl-ethyl)-amide]

SMILES: Cc1nc(C(C)(CS(C)(=O)=O)NC(=O)c2cc(OCC(F)F)c(C3CC3)cn2)no1 (single isomer, unassigned) [Example 283, 5-cyclopropyl-4-(2,2-difluoroethoxy)-N-(2-(5-methyl-1,2,4-oxadiazol-3-yl)-1-(methylsulfonyl)propan-2-yl)picolinamide]
- EC50 (human CB2 receptors; Human CB2 EC50 (uM)): 0.0533 µM
- EC50 (human CB1 receptors; [2]): > 10 µM

SMILES: CC(CC1CC1)(NC(=O)c1cc(OCC(F)(F)F)c(C2CC2)cn1)c1noc(N)n1 (single isomer, unassigned) [Example 207, N-[2-(5-amino-1,2,4-oxadiazol-3-yl)-1-cyclopropylpropan-2-yl]-5-cyclopropyl-4-(2,2,2-trifluoroethoxy)pyridine-2-carboxamide]
- EC50 (human CB2 receptors; Human CB2 EC50 (uM)): 0.0083 µM
- EC50 (human CB1 receptors; [2]): > 10 µM

SMILES: O=C(N[C@H](c1ccccn1)C(F)(F)F)c1cc(OCC2CC2)c(Cl)cn1 [Example 16, (+)-5-Chloro-4-cyclopropylmethoxy-pyridine-2-carboxylic acid (2,2,2-trifluoro-1-pyridin-2-yl-ethyl)-amide]
- EC50 (human CB2 receptors; read-out: Human CB2 EC50): 0.0031 µM
- EC50 (human CB1 receptors; [1]): 0.815 µM

SMILES: Cc1nc(C(NC(=O)c2cc(OCC(F)(F)F)c(C3CC3)cn2)C(C)(C)C)no1 (single isomer, unassigned) [Example 211, 5-cyclopropyl-N-[2,2-dimethyl-1-(5-methyl-1,2,4-oxadiazol-3-yl)propyl]-4-(2,2,2-trifluoroethoxy)pyridine-2-carboxamide]
- EC50 (human CB2 receptors; Human CB2 EC50 (uM)): 0.0048 µM
- EC50 (human CB1 receptors; [2]): > 10 µM

SMILES: O=C(NC(CCO)C1CC1)c1cc(OCC2CC2)c(Cl)cn1 (centres unmarked) [Example 19, 5-Chloro-4-cyclopropylmethoxy-pyridine-2-carboxylic acid (1-cyclopropyl-3-hydroxy-propyl)-amide]
- EC50 (human CB2 receptors; read-out: Human CB2 EC50): 0.0615 µM
- EC50 (human CB1 receptors; [1]): > 10 µM

SMILES: O=C(NC1(CO)CCCCC1)c1cc(OCC(F)(F)F)c(C2CC2)cn1 [Example 55, 5-Cyclopropyl-4-(2,2,2-trifluoro-ethoxy)-pyridine-2-carboxylic acid (1-hydroxymethyl-cyclohexyl)-amide]
- EC50 (human CB2 receptors; read-out: Human CB2 EC50): 0.0157 µM
- EC50 (human CB1 receptors; [1]): > 10 µM

SMILES: Cc1nc([C@@](C)(NC(=O)c2cc(O[C@@H](C)C(F)(F)F)c(C3(F)COC3)cn2)C2CC2)no1 [Example 168, N-[1-cyclopropyl-1-(5-methyl-1,2,4-oxadiazol-3-yl)ethyl]-5-(3-fluorooxetan-3-yl)-4-[(2S)-1,1,1-trifluoropropan-2-yl]oxypyridine-2-carboxamide]
- EC50 (human CB2 receptors; read-out: Human CB2 EC50): 0.281 µM
- EC50 (human CB1 receptors; [1]): > 10 µM

SMILES: CC(C)C(CCO)NC(=O)c1cc(OCC2CC2)c(Cl)cn1 (centres unmarked) [Example 18, 5-Chloro-4-cyclopropylmethoxy-pyridine-2-carboxylic acid [1-(2-hydroxy-ethyl)-2-methyl-propyl]-amide]
- EC50 (human CB2 receptors; read-out: Human CB2 EC50): 0.149 µM
- EC50 (human CB1 receptors; [1]): > 10 µM

SMILES: CC[C@](C)(CO)NC(=O)c1cc(OCC2CC2)c(Cl)cn1 [Example 30, (−)-5-Chloro-4-cyclopropylmethoxy-pyridine-2-carboxylic acid (1-hydroxymethyl-1-methyl-propyl)-amide]
- EC50 (human CB2 receptors; read-out: Human CB2 EC50): 0.0192 µM
- EC50 (human CB1 receptors; [1]): > 10 µM

SMILES: Cc1nc(C(C)(CC2CC2)NC(=O)c2cc(OC(C)CF)c(C3CC3)cn2)no1 (single isomer, unassigned) [Example 288, 5-cyclopropyl-N-(1-cyclopropyl-2-(5-methyl-1,2,4-oxadiazol-3-yl)propan-2-yl)-4-(1-fluoropropan-2-yloxy)picolinamide]
- EC50 (human CB2 receptors; Human CB2 EC50 (uM)): 0.0008 µM
- EC50 (human CB1 receptors; read-out: Human CB1 EC50; functional cAMP assay, CHO cells expressing human CB1): > 10 µM

SMILES: CNC(=O)[C@@H](C)C(C)(C)NC(=O)c1cc(OCC2CC2)c(Cl)cn1 [Example 34, (−)-5-Chloro-4-cyclopropylmethoxy-pyridine-2-carboxylic acid (1,1-dimethyl-2-methylcarbamoyl-propyl)-amide]
- EC50 (human CB2 receptors; read-out: Human CB2 EC50): 0.268 µM
- EC50 (human CB1 receptors; [1]): > 10 µM

SMILES: Cc1nc(C(C)(CC2CC2)NC(=O)c2cc(OCC(F)F)c(C3CC3)cn2)no1 (centres unmarked) [Example 145, 5-cyclopropyl-N-[1-cyclopropyl-2-(5-methyl-1,2,4-oxadiazol-3-yl)propan-2-yl]-4-(2,2-difluoroethoxy)pyridine-2-carboxamide]
- EC50 (human CB2 receptors; read-out: Human CB2 EC50): 0.0034 µM
- EC50 (human CB1 receptors; [1]): > 10 µM

SMILES: CCC(CC)(NC(=O)c1cc(OCC2(C)COC2)c(C2CC2)cn1)C(=O)NCC(F)CCl (centres unmarked) [Example 235, N-[3-[[3-chloro-2-fluoropropyl]carbamoyl]pentan-3-yl]-5-cyclopropyl-4-[(3-methyloxetan-3-yl)methoxy]pyridine-2-carboxamide]
- EC50 (human CB2 receptors; read-out: Human CB2 EC50): 0.293 µM
- EC50 (human CB1 receptors; [1]): > 10 µM

SMILES: Cc1nc(C(C)(CS(C)(=O)=O)NC(=O)c2cc(O[C@@H](C)C(F)(F)F)c(C3CCC3)cn2)no1 (stereo partly drawn) [Example 119, 5-cyclobutyl-N-[2-(5-methyl-1,2,4-oxadiazol-3-yl)-1-methylsulfonylpropan-2-yl]-4-[(2S)-1,1,1-trifluoropropan-2-yl]oxypyridine-2-carboxamide]
- EC50 (human CB2 receptors; read-out: Human CB2 EC50): 0.0091 µM
- EC50 (human CB1 receptors; [1]): > 10 µM

SMILES: CCC(CC)(CO)NC(=O)c1cc(OCC2CC2)c(Cl)cn1 [Example 21, 5-Chloro-4-cyclopropylmethoxy-pyridine-2-carboxylic acid (1-ethyl-1-hydroxymethyl-propyl)-amide]
- EC50 (human CB2 receptors; read-out: Human CB2 EC50): 0.0404 µM
- EC50 (human CB1 receptors; [1]): > 10 µM

SMILES: O=C(NCC1(CO)CCCC1)c1cc(OCC2CC2)c(Cl)cn1 [Example 20, 5-Chloro-4-cyclopropylmethoxy-pyridine-2-carboxylic acid (1-hydroxymethyl-cyclopentylmethyl)-amide]
- EC50 (human CB2 receptors; read-out: Human CB2 EC50): 0.0232 µM
- EC50 (human CB1 receptors; [1]): > 10 µM

SMILES: CCC(CC)(NC(=O)c1cc(OCC2(C)COC2)c(C2CC2)cn1)C(=O)NCCCF [Example 234, 5-cyclopropyl-N-[3-(3-fluoropropylcarbamoyl)pentan-3-yl]-4-[(3-methyloxetan-3-yl)methoxy]pyridine-2-carboxamide]
- EC50 (human CB2 receptors; read-out: Human CB2 EC50): 0.455 µM
- EC50 (human CB1 receptors; [1]): > 10 µM

SMILES: CC(C)CC(C)(CO)NC(=O)c1cc(OCC2CC2)c(Cl)cn1 (centres unmarked) [Example 25, 5-Chloro-4-cyclopropylmethoxy-pyridine-2-carboxylic acid (1-hydroxymethyl-1,3-dimethyl-butyl)-amide]
- EC50 (human CB2 receptors; read-out: Human CB2 EC50): 0.0119 µM
- EC50 (human CB1 receptors; [1]): > 10 µM
